According to patent publication US9986723B2, “Screen and use of therapeutics for pancreatic ductal adenocarcinoma” (The Board of Regents of the University of Texas System, priority 2014, dated 2018):

Assays:
[1] = system: PanIN and PDA tumor growth in KIC mice; experiment: Two week in vivo assay in Rgs16::GFP;KIC mice, Rgs16::GFP intensity at P29; set-up: species or system mouse
Text: Fluorescent microscopy and GFP quantification. Pancreatic expression of Rgs16::GFP in GFP-PDA mice was quantified using a Zeiss Lumar microscope. Images were captured using a single-channel camera (Hamamatsu) in 1344×1024 resolution with 1 sec exposure under 48× magnification with 1×1 binning, analog gain=10, and analog offset=2 settings. Pancreatic fields representing the tumor burden (3-4 fields for P15 pups and 5 or more for pups from P23 onwards) of the pancreas were imaged covering up to 50% of the organ surface area. All images were saved in gray-scale 16-bit tiff format. Images were quantified using NIH ImageJ software with background subtraction with a radius of 50 pixels. A variable and tight threshold was set to eliminate residual background. Intensities of all particles with size ≥5 pixels were summed to obtain the total light intensity per image.
Drug dosages. GFP-PDA mice were injected intraperitoneally with gemcitabine (Eli Lilly; Indianapolis, Ind., USA) (12.5 mg/kg/day given 3 days/week, dissolved in PBS), Abraxane (Cellgene; Summit, N.J., USA) (5 mg/kg/day given 2 days/week, diluted in 2% saline solution), BGB324 (BerGenBio, Bergen, Norway) (5 mg/kg/day given 5 days/week, dissolved in a mix of DMSO:ethanol:Kolliphor EL:water with 4:4:8:84 v/v ratio), and warfarin (0.2 mg/kg/day given 5 days/week, dissolved in PBS) according to injection schedules specified below. These doses were validated in prior mouse studies (Dineen et al., 2010; Kutluk Cenik et al., 2013; Ostapoff et al., 2013; Aguilera et al., 2014; Ostapoff et al., 2014). […] To verify tumor progression remains constant over the duration of these experiments, assays of untreated mice were interspersed with drug-treated cohorts, and warfarin-treated pups were the final cohort the inventors tested. Gemcitabine, Abraxane and warfarin were purchased from the UT Southwestern clinical pharmacy; BGB324 was a gift from BerGenBio.
Statistical analysis of GFP expression. GFP values were converted to log10 scale prior to statistical analysis. Graphs and their statistical comparisons were done using Graphpad Prism software with unpaired and two-tailed Student's t test. Significance between groups was indicated as ns (not significant); *p<0.05; **p<0.01; ***p<0.001; ****p<0.0001. Error bars in all the graphs are standard error mean (SEM). See FIGS. 7-8 for additional statistical analysis.
The therapeutic screening strategy was to treat KIC pups between P15-P28 (when PanIN and PDA are in rapid expansion) with anticancer drugs, sacrifice mice at P29, and capture Rgs16::GFP intensity with a dissection fluorescence microscope. Images of the five brightest non-overlapping fields of Rgs16::GFP expression were then collected, representing the regions of greatest tumor burden (FIGS. 17A-C).

Mia PaCa-2 cells = experiment: Mesenchymal/epithelial markers by ICC; type: cell-based, human; settings: warfarin, in vitro
Description: FIGS. 31A-B. Maintenance of mesenchymal phenotype is Axl dependent and inhibited by warfarin. (FIGS. 31A-B) Mia PaCa-2 cells were grown in 1% serum containing media the absence (Control) or presence of warfarin (2 μM) overnight. Cells were assessed for expression of phosphorylated Axl, nuclear Zeb1 (FIG. 31A) and vimentin and E-cadherin (FIG. 31B) by ICC. […] (FIG. 31B) Representative images of Vimentin and E-Cadherin expression are shown, total magnification 400×. Images were analyzed using Elements software. Welch's t-test*, p<0.05; **, p<0.01 vs control.
Signaling and functional assays. Cells were grown to confluence in […] or 4 well chamber slides and treated overnight with low serum (1-2%) media+/−warfarin (2 μM) or 10C9 (1.1 μM, 168 μg/ml) overnight. Cells were subsequently analyzed by western blot or immunocytochemsitry (ICC).

primary PDA cells = experiment: Rgs16::GFP PDA primary cell culture, live cell counts after 24 hr drug treatment; type: cell-based, mouse; settings: 24 hr, gemcitabine 10 μM, BGB324 or warfarin 1 or 10 μM
Description: Cell proliferation counts of primary PDA culture after 24 hr treatment with (FIG. 20A) gemcitabine (purple round); (FIG. 20B) BGB324 (green round); (FIG. 20C) warfarin (blue round); or (FIG. 20D) BGB324 with warfarin (green or blue round) at the indicated concentrations. PDA primary cells were plated at equal density (black open circle) at the start. Next day, cells were treated with drugs (D, red font) for 24 hr (red line). Approximate cell number at the start of drug treatment was obtained from another plate with equal density (red open circle). At the end of treatment, cells in each group were counted and subsequent passages started with cells plated at equal density (grey asterisk). Drug treated groups were allowed to grow without drug selection thereafter. Control cells (Ctrl) on separate plates were grown without drug and counted at the end of each passage (black open circle). PDA live cell numbers were obtained via counts using a hemocytometer after 2% Trypan blue staining to distinguish between living and dead cells under an inverted microscope with 10× objective. Statistical significances are based on comparison of drug-treated cell counts to Ctrl. […] Statistical analyses were obtained by comparing counts of drug-treated cells to Ctrl via unpaired and two-tailed Student's t-test. *, p<0.05; **, p<0.01; ***, p<0.001; ****, p<0.0001. Asterisks match the color of the comparison group.
Rgs16::GFP PDA primary cell culture. Primary Rgs16::GFP PDA cells were harvested from 6-week-old KIC mice. Cells were grown in 25 mM Glucose DMEM (HyClone) with 10% FBS (Serum Source International), penicillin and streptomycin (Life Technologies) on rat tail collagen typel (BD Biosciences) coated plates (0.5 μg/cm^2) in a humidified incubator at 37° C. and 5% CO2. Cells reaching confluency were washed twice with PBS (HyClone) and lifted with 0.05% Trypsin-EDTA (HyClone) treatment up to 10 min in the incubator. For drug tests in FIGS. 20A-D, primary PDA cells were incubated with gemcitabine (10 μM dissolved in PBS), warfarin (1 μM or 10 μM dissolved in water), BGB324 (1 μM or 10 μM dissolved in DMSO) or warfarin and BGB324 together for 24 hrs in 37° C. incubator. PDA live cell numbers were obtained via counts using a hemocytometer following 2% trypan blue staining to distinguish dead cells under an inverted microscope.

CC(=O)CC(c1ccccc1)c1c(O)c2ccccc2oc1=O (racemic) [Warfarin]
effect on PanIN lesions and PDA tumor growth (Rgs16::GFP expression) ([1]; KIC mice treated P15-P28, i.p., sacrificed P29): no effect
mice with at least one field in the lower 1% ile of all untreated fields ([1]; P29, untreated 7%): 19%
mice with at least one field of Rgs16::GFP expression in pancreas greater than the upper 95% ile of all untreated fields ([1]; P29, untreated 14%): 13%
expression of the epithelial marker E-cadherin (Mia PaCa-2 cells): elevating
pAxl levels, surface Axl expression, Zeb1 and vimentin (Mia PaCa-2 cells): reduced
effect on cell viability and proliferation (primary PDA cells): little or no effect on cell growth
effect on cell viability and proliferation (primary PDA cells; listed as warfarin): no effect
